Assay results: PubChem BioAssay AID1259407 (Chemical Carcinogenesis Research Information System (CCRIS), 2018)
Activity calls are given as the source filed them. How the calls were made is not given here.

System: CCRIS mutagenicity, Ames/micronucleus/aberration tests
Experiment: CCRIS mutagenicity studies
[1] = Test System: AMES SALMONELLA TYPHIMURIUM, Strain/Indicator: TA97, Metabolic Activation: NONE, Method: PREINCUBATION
[2] = Test System: AMES SALMONELLA TYPHIMURIUM, Strain/Indicator: TA98, Metabolic Activation: HAMSTER, LIVER, S-9, AROCLOR 1254 (30%), Method: PREINCUBATION
[3] = Test System: AMES SALMONELLA TYPHIMURIUM, Strain/Indicator: TA98, Metabolic Activation: NONE, Method: PREINCUBATION
[4] = Test System: AMES SALMONELLA TYPHIMURIUM, Strain/Indicator: TA98, Metabolic Activation: RAT, LIVER, S-9, AROCLOR 1254 (30%), Method: PREINCUBATION
[5] = Test System: AMES SALMONELLA TYPHIMURIUM, Strain/Indicator: TA100, Metabolic Activation: NONE, Method: PREINCUBATION
[6] = Test System: AMES SALMONELLA TYPHIMURIUM, Strain/Indicator: TA1535, Metabolic Activation: NONE, Method: PREINCUBATION

Question: Which results are given for `CCN(CC)c1ccc2c(-c3ccccc3C(=O)O)c3ccc(=[N+](CC)CC)cc-3oc2c1`?
Answer: mutagenic call (Test System: AMES SALMONELLA TYPHIMURIUM, Strain/Indicator: TA97, Metabolic Activation: HAMSTER, LIVER, S-9, AROCLOR 1254 (10%), Method: PREINCUBATION): inactive; negative; mutagenic call (Test System: AMES SALMONELLA TYPHIMURIUM, Strain/Indicator: TA97, Metabolic Activation: HAMSTER, LIVER, S-9, AROCLOR 1254 (30%), Method: PREINCUBATION): inactive; negative; mutagenic call [1]: inactive; negative; mutagenic call (Test System: AMES SALMONELLA TYPHIMURIUM, Strain/Indicator: TA97, Metabolic Activation: RAT, LIVER, S-9, AROCLOR 1254 (10%), Method: PREINCUBATION): inactive; negative; mutagenic call (Test System: AMES SALMONELLA TYPHIMURIUM, Strain/Indicator: TA97, Metabolic Activation: RAT, LIVER, S-9, AROCLOR 1254 (30%), Method: PREINCUBATION): inactive; negative; mutagenic call (Test System: AMES SALMONELLA TYPHIMURIUM, Strain/Indicator: TA98, Metabolic Activation: HAMSTER, LIVER, S-9, AROCLOR 1254 (10%), Method: PREINCUBATION): inactive; negative; mutagenic call [2]: inactive; negative; mutagenic call [3]: inactive; negative; mutagenic call (Test System: AMES SALMONELLA TYPHIMURIUM, Strain/Indicator: TA98, Metabolic Activation: RAT, LIVER, S-9, AROCLOR 1254 (10%), Method: PREINCUBATION): inactive; negative; mutagenic call [4]: inactive; negative; mutagenic call (Test System: AMES SALMONELLA TYPHIMURIUM, Strain/Indicator: TA98, Metabolic Activation: RAT, LIVER, S-9, BETA-NAPHTHOFLAVONE AND PHENOBARBITAL, Method: PREINCUBATION): active; positive; mutagenic call (Test System: AMES SALMONELLA TYPHIMURIUM, Strain/Indicator: TA100, Metabolic Activation: HAMSTER, LIVER, S-9, AROCLOR 1254 (10%), Method: PREINCUBATION): inactive; negative; mutagenic call (Test System: AMES SALMONELLA TYPHIMURIUM, Strain/Indicator: TA100, Metabolic Activation: HAMSTER, LIVER, S-9, AROCLOR 1254 (30%), Method: PREINCUBATION): inactive; negative; mutagenic call [5]: inactive; negative; mutagenic call (Test System: AMES SALMONELLA TYPHIMURIUM, Strain/Indicator: TA100, Metabolic Activation: RAT, LIVER, S-9, AROCLOR 1254 (10%), Method: PREINCUBATION): inactive; negative; mutagenic call (Test System: AMES SALMONELLA TYPHIMURIUM, Strain/Indicator: TA100, Metabolic Activation: RAT, LIVER, S-9, AROCLOR 1254 (30%), Method: PREINCUBATION): inactive; negative; mutagenic call (Test System: AMES SALMONELLA TYPHIMURIUM, Strain/Indicator: TA1535, Metabolic Activation: HAMSTER, LIVER, S-9, AROCLOR 1254 (5%), Method: PREINCUBATION): inactive; negative; mutagenic call (Test System: AMES SALMONELLA TYPHIMURIUM, Strain/Indicator: TA1535, Metabolic Activation: HAMSTER, LIVER, S-9, AROCLOR 1254 (10%), Method: PREINCUBATION): inactive; negative; mutagenic call (Test System: AMES SALMONELLA TYPHIMURIUM, Strain/Indicator: TA1535, Metabolic Activation: HAMSTER, LIVER, S-9, AROCLOR 1254 (30%), Method: PREINCUBATION): inactive; negative; mutagenic call [6]: inactive; negative; mutagenic call (Test System: AMES SALMONELLA TYPHIMURIUM, Strain/Indicator: TA1535, Metabolic Activation: RAT, LIVER, S-9, AROCLOR 1254 (5%), Method: PREINCUBATION): inactive; negative; mutagenic call (Test System: AMES SALMONELLA TYPHIMURIUM, Strain/Indicator: TA1535, Metabolic Activation: RAT, LIVER, S-9, AROCLOR 1254 (10%), Method: PREINCUBATION): inactive; negative; mutagenic call (Test System: AMES SALMONELLA TYPHIMURIUM, Strain/Indicator: TA1535, Metabolic Activation: RAT, LIVER, S-9, AROCLOR 1254 (30%), Method: PREINCUBATION): inactive; negative; mutagenic call (Test System: AMES SALMONELLA TYPHIMURIUM, Strain/Indicator: TA1537, Metabolic Activation: HAMSTER, LIVER, S-9, AROCLOR 1254 (10%), Method: PREINCUBATION): inactive; negative; mutagenic call (Test System: AMES SALMONELLA TYPHIMURIUM, Strain/Indicator: TA1537, Metabolic Activation: NONE, Method: PREINCUBATION): inactive; negative; mutagenic call (Test System: AMES SALMONELLA TYPHIMURIUM, Strain/Indicator: TA1537, Metabolic Activation: RAT, LIVER, S-9, AROCLOR 1254 (10%), Method: PREINCUBATION): inactive; negative; mutagenic call (Test System: AMES SALMONELLA TYPHIMURIUM, Strain/Indicator: TA1538, Metabolic Activation: NONE, Method: STANDARD PLATE): inactive; negative; mutagenic call (Test System: AMES SALMONELLA TYPHIMURIUM, Strain/Indicator: TA1538, Metabolic Activation: RAT, LIVER, S-9, AROCLOR 1254, Method: STANDARD PLATE): inactive; negative; mutagenic call (Test System: CHINESE HAMSTER V-79, Strain/Indicator: V-79/6-THIOGUANINE, Metabolic Activation: NONE, Method: SUSPENSION/PLATE): inactive; negative; mutagenic call (Test System: CHINESE HAMSTER V-79, Strain/Indicator: V-79/6-THIOGUANINE, Metabolic Activation: RAT, LIVER, S-9, PHENOBARBITAL AND BETA-NAPHTHOFLAVONE, Method: SUSPENSION/PLATE): inactive; negative

Question: What does the source list for `O=C(O)CNC(=O)c1ccc([N+](=O)[O-])cc1`?
Answer: mutagenic call [2]: inactive; negative; mutagenic call [3]: active; positive; mutagenic call [4]: inactive; negative; mutagenic call (Test System: AMES SALMONELLA TYPHIMURIUM, Strain/Indicator: TA100, Metabolic Activation: HAMSTER, LIVER, S-9, AROCLOR 1254 (5, 10 OR 30%), Method: PREINCUBATION): inactive; negative; mutagenic call [5]: active; positive; mutagenic call (Test System: AMES SALMONELLA TYPHIMURIUM, Strain/Indicator: TA100, Metabolic Activation: RAT, LIVER, S-9, AROCLOR 1254 (5, 10 OR 30%), Method: PREINCUBATION): inactive; negative; mutagenic call (Test System: AMES SALMONELLA TYPHIMURIUM, Strain/Indicator: TA1535, Metabolic Activation: HAMSTER, LIVER, S-9, AROCLOR 1254 (5, 10 OR 30%), Method: PREINCUBATION): inactive; negative; mutagenic call [6]: inactive; negative; mutagenic call (Test System: AMES SALMONELLA TYPHIMURIUM, Strain/Indicator: TA1535, Metabolic Activation: RAT, LIVER, S-9, AROCLOR 1254 (5, 10 OR 30%), Method: PREINCUBATION): inactive; negative; mutagenic call (Test System: AMES SALMONELLA TYPHIMURIUM, Strain/Indicator: TA1538, Metabolic Activation: NONE, Method: PREINCUBATION): active; positive

Question: Which mutagenic call (Test System: AMES SALMONELLA TYPHIMURIUM, Strain/Indicator: TA97, Metabolic Activation: HAMSTER, LIVER, S-9, AROCLOR 1254 (10 OR 30%), Method: PREINCUBATION) does the source give for `COC(=O)c1ccc(C=O)cc1` here?
Answer: inactive; negative

Question: And the mutagenic call [1]?
Answer: inactive; negative

Question: What about the mutagenic call (Test System: AMES SALMONELLA TYPHIMURIUM, Strain/Indicator: TA97, Metabolic Activation: RAT, LIVER, S-9, AROCLOR 1254 (10 OR 30%), Method: PREINCUBATION) of the same molecule?
Answer: inactive; negative

Question: And the mutagenic call (Test System: AMES SALMONELLA TYPHIMURIUM, Strain/Indicator: TA98, Metabolic Activation: HAMSTER, LIVER, S-9, AROCLOR 1254 (10 OR 30%), Method: PREINCUBATION)?
Answer: inactive; negative

Question: And the mutagenic call [3]?
Answer: inactive; negative

Question: And the mutagenic call (Test System: AMES SALMONELLA TYPHIMURIUM, Strain/Indicator: TA98, Metabolic Activation: RAT, LIVER, S-9, AROCLOR 1254 (10 OR 30%), Method: PREINCUBATION)?
Answer: inactive; negative

Question: And the mutagenic call (Test System: AMES SALMONELLA TYPHIMURIUM, Strain/Indicator: TA100, Metabolic Activation: HAMSTER, LIVER, S-9, AROCLOR 1254 (10 OR 30%), Method: PREINCUBATION)?
Answer: inactive; negative

Question: And the mutagenic call [5]?
Answer: inactive; negative

Question: What about the mutagenic call (Test System: AMES SALMONELLA TYPHIMURIUM, Strain/Indicator: TA100, Metabolic Activation: RAT, LIVER, S-9, AROCLOR 1254 (10 OR 30%), Method: PREINCUBATION) of the same molecule?
Answer: inactive; negative

Question: What about the mutagenic call (Test System: AMES SALMONELLA TYPHIMURIUM, Strain/Indicator: TA1535, Metabolic Activation: HAMSTER, LIVER, S-9, AROCLOR 1254 (10 OR 30%), Method: PREINCUBATION) of the same molecule?
Answer: inactive; negative

Question: What about the mutagenic call [6] of the same molecule?
Answer: inactive; negative

Question: What about the mutagenic call (Test System: AMES SALMONELLA TYPHIMURIUM, Strain/Indicator: TA1535, Metabolic Activation: RAT, LIVER, S-9, AROCLOR 1254 (10 OR 30%), Method: PREINCUBATION) of the same molecule?
Answer: inactive; negative
